Measurements: ChEMBL document CHEMBL4811289, “Antibacterial and Cytotoxic Phenyltetracenoid Polyketides from Streptomyces morookaense” (J Nat Prod, 2021)
≈ marks a conversion by molar mass, not a printed value. Where “and” joins values, the source holds several entries; their conditions need not be identical. Equal entries are not always repeated. Structures can show the parent of a compound that is named as a salt.

Assays:
Staphylococcus aureus [1] = experiment: Antibacterial activity against methicillin-resistant Staphylococcus aureus ATCC 6548 incubated for 6 to 8 hrs by MABA; format: functional; conditions: time 6-8 hrs
Staphylococcus aureus [2] = experiment: Antibacterial activity against methicillin-sensitive Staphylococcus aureus incubated for 6 to 8 hrs by MABA; format: functional; conditions: time 6-8 hrs
MCF7 = experiment: Cytotoxicity against human MCF7 cells assessed as reduction in cell viability after 72 hrs by MTT assay; format: functional, cell-based
HeLa = experiment: Cytotoxicity against human HeLa cells assessed as reduction in cell viability after 72 hrs by MTT assay; format: functional, cell-based
Enterococcus faecium [3] = experiment: Antibacterial activity against vancomycin-sensitive Enterococcus faecium incubated for 6 to 8 hrs by MABA; format: functional; conditions: time 6-8 hrs
HepG2 = experiment: Cytotoxicity against human HepG2 cells assessed as reduction in cell viability after 72 hrs by MTT assay; format: functional, cell-based
A549 = experiment: Cytotoxicity against human A549 cells assessed as reduction in cell viability after 72 hrs by MTT assay; format: functional, cell-based
Vero = experiment: Cytotoxicity against African green monkey Vero cells assessed as reduction in cell viability after 72 hrs by MTT assay; format: cell-based, Chlorocebus sabaeus
Enterococcus faecium [4] = experiment: Antibacterial activity against vancomycin-resistant Enterococcus faecium incubated for 6 to 8 hrs by MABA; format: functional; conditions: time 6-8 hrs
[5] = Chlorocebus sabaeus, Vero, 72 h

Row | SMILES | MIC (Staphylococcus aureus [1]) [µg/mL] | MIC (Staphylococcus aureus [2]) [µg/mL] | IC50 (MCF7; Homo sapiens, MCF7, 72 h) [µM] | IC50 (HeLa; Homo sapiens, HeLa, 72 h) [µM] | MIC (Enterococcus faecium [3]) [µg/mL] | IC50 (HepG2; Homo sapiens, HepG2, 72 h) [µM] | IC50 (A549; Homo sapiens, A549, 72 h) [µM] | IC50 (Vero; [5]) [µM] | MIC (Enterococcus faecium [4]) [µg/mL] | IC50 (MCF7; mcf7) [µM] | IC50 (HeLa; hela) [µM] | IC50 (HepG2; hepg2) [µM] | IC50 (A549; a549) [µM] | IC50 (Vero; vero)
1 | COC1=CC(=O)C(c2cc(OC)cc3cc4c(c(O)c23)C(=O)c2c(cc(OC)c(Cl)c2O)C4(C)C)=C(C)C1=O | > 10 | > 10 | > 50 | > 50 | > 10 | > 50 | > 50 | > 50 | – | – | – | – | – | –
2 | COc1cc(C)c(-c2cc(OC)cc3cc4c(c(O)c23)C(=O)c2c(cc(OC)c(Cl)c2OC)C4(C)C)c(O)c1 | > 10 | > 10 | 7.9 | 4.1 | > 10 | 3.2 | 6.4 | 5.8 | – | – | – | – | – | –
3 | COc1cc(-c2c(O)cc(O)c(Cl)c2C)c2c(O)c3c(cc2c1)C(C)(C)c1cc(OC)c(Cl)c(O)c1C3=O | 1.25 (≈ 2.25 µM) | 2.5 (≈ 4.5 µM) | 10.7 | 5.3 | 1.25 (≈ 2.25 µM) | 7.3 | 6.4 | 13.7 | 5 (≈ 9 µM) | – | – | – | – | –
4 | COc1cc(C)c(-c2cc(OC)cc3cc4c(c(O)c23)C(=O)c2c(cc(OC)c(Cl)c2O)C4(C)C)c(O)c1 | > 10 | > 10 | 7.5 | 4.6 | > 10 | 8.3 | 7.6 | 8.2 | – | – | – | – | – | –
5 | COc1cc(C)c(-c2cc(OC)c(Cl)c3cc4c(c(O)c23)C(=O)c2c(cc(O)c(Cl)c2O)C4(C)C)c(O)c1 | 1.25 (≈ 2.25 µM) | 1.25 (≈ 2.25 µM) | 7.6 | 6 | 2.5 (≈ 4.5 µM) | 7.2 | 4.8 | 4.8 | 2.5 (≈ 4.5 µM) | – | – | – | – | –
6 | COc1cc(O)c(-c2cc(O)cc3cc4c(c(O)c23)C(=O)c2c(cc(OC)c(Cl)c2O)C4(C)C)c(C)c1Cl | – | – | 3.1 | 3.7 | – | 3.7 | 2.6 | 3.5 | – | – | – | – | – | –
7 | COc1cc2c(c(O)c1Cl)C(=O)c1c(cc3c(Cl)c(O)cc(-c4c(C)c(Cl)c(O)c(Cl)c4O)c3c1O)C2(C)C | – | – | 18.1 | 14.3 | – | 9.8 | 7 | 27.3 | – | – | – | – | – | –
8 | COc1cc2c(c(O)c1Cl)C(=O)c1c(cc3c(Cl)c(O)cc(-c4c(C)c(Cl)c(OC)c(Cl)c4O)c3c1O)C2(C)C | 2.5 (≈ 4 µM) | 2.5 (≈ 4 µM) | 13.9 | 9.9 | 2.5 (≈ 4 µM) | 8.8 | 5.6 | 12 | 5 (≈ 8.01 µM) | – | – | – | – | –
9 | COc1cc2c(c(O)c1Cl)C(=O)c1c(cc3cc(O)cc(-c4c(C)c(Cl)c(O)c(Cl)c4O)c3c1O)C2(C)C | – | – | 9.2 | 6.1 | – | 4.5 | 4.6 | 12.5 | – | – | – | – | – | –
10 | COc1cc(C)c(-c2nc(C)cc3cc4c(c(O)c23)C(=O)c2c(OC)cc(OC)cc2C4(C)C)c(OC)c1 | > 10 | > 10 | 5.9 | 3.7 | > 10 | 3.4 | 5.1 | – | – | 11.2 | 4.6 | 3.8 | 6.6 | 2.7 µM and 7.5 µM
11 | COc1cc2c(c(O)c1Cl)C(=O)c1c(cc3c(Cl)c(O)cc(-c4c(O)cc(O)c(Cl)c4C)c3c1O)C2(C)C | – | – | 4.7 | 4.7 | – | 5.3 | 3.1 | 14.6 | – | – | – | – | – | –
12 | COc1cc(C)c(-c2cc(O)cc3cc4c(c(O)c23)C(=O)c2c(cc(OC)c(Cl)c2OC)C4(C)C)c(O)c1 | 2.5 (≈ 4.67 µM) | 2.5 (≈ 4.67 µM) | 5 | 3.9 | 2.5 (≈ 4.67 µM) | 5.7 | 3.3 | 3 | 2.5 (≈ 4.67 µM) | – | – | – | – | –
13 | COc1cc(C)c(-c2cc(OC)c(Cl)c3cc4c(c(O)c23)C(=O)c2c(cc(OC)c(Cl)c2O)C4(C)C)c(O)c1 | > 10 | > 10 | 3.8 | 11.5 | > 10 | 9.2 | 9 | 6.1 | – | – | – | – | – | –
14 | COc1cc(C)c(-c2cc(OC)cc3cc4c(c(O)c23)C(=O)c2c(cc(O)c(Cl)c2O)C4(C)C)c(O)c1 | 2.5 (≈ 4.8 µM) | 2.5 (≈ 4.8 µM) | 24.3 | 7 | 2.5 (≈ 4.8 µM) | 12.1 | 5.6 | 18.9 | 5 (≈ 9.6 µM) | – | – | – | – | –
15 | COc1cc(C)c(-c2cc(O)c(Cl)c3cc4c(c(O)c23)C(=O)c2c(cc(O)c(Cl)c2O)C4(C)C)c(O)c1 | 1.25 (≈ 2.31 µM) | 1.25 (≈ 2.31 µM) | 21.7 | 11 | 2.5 (≈ 4.62 µM) | 9.4 | 8.9 | 47 | 5 (≈ 9.24 µM) | – | – | – | – | –
16 | COc1cc2c(c(O)c1Cl)C(=O)c1c(cc3cc(O)cc(-c4c(C)c(Cl)c(O)c(Cl)c4OC)c3c1O)C2(C)C | – | – | 18.4 | 4.8 | – | 4.7 | 5.4 | 11.1 | – | – | – | – | – | –
17 | CN[C@H](CC(C)C)C(=O)N[C@H]1C(=O)N[C@@H](CC(N)=O)C(=O)N[C@H]2C(=O)N[C@H]3C(=O)N[C@H](C(=O)N[C@H](C(=O)O)c4cc(O)cc(O)c4-c4cc3ccc4O)[C@H](O)c3ccc(c(Cl)c3)Oc3cc2cc(c3O[C@@H]2O[C@H](CO)[C@@H](O)[C@H](O)[C@H]2O[C@H]2C[C@](C)(N)[C@H](O)[C@H](C)O2)Oc2ccc(cc2Cl)[C@H]1O [VANCOMYCIN] | 0.63 (≈ 0.435 µM) | – | – | – | 1.25 (≈ 0.863 µM) | – | – | – | > 40 | – | – | – | – | –
18 | COc1cc(C)c(-c2cc(OC)c(Cl)c3cc4c(c(O)c23)C(=O)c2c(cc(OC)c(Cl)c2OC)C4(C)C)c(O)c1 | > 10 | > 10 | 13.1 | 15 | > 10 | 15 | 8.3 | 9 | – | – | – | – | – | –
19 | COc1cc(C)c(-c2cc(O)c(Cl)c3cc4c(c(O)c23)C(=O)c2c(cc(OC)c(Cl)c2O)C4(C)C)c(O)c1 | – | – | 3.6 | 3.3 | – | 3.2 | 2.8 | 9 | – | – | – | – | – | –
20 | COc1cc(-c2c(O)cc(OC)c(Cl)c2C)c2c(O)c3c(cc2c1)C(C)(C)c1cc(OC)c(Cl)c(O)c1C3=O | > 10 | > 10 | 18.3 | 22.4 | > 10 | 10.2 | 7.7 | 18 | – | – | – | – | – | –
21 | COc1cc2c(c(O)c1Cl)C(=O)c1c(cc3cc(O)cc(-c4c(O)cc(O)c(Cl)c4C)c3c1O)C2(C)C | – | – | 17.6 | 15 | – | 11.7 | 13.1 | 14.6 | – | – | – | – | – | –
22 | COc1cc(C)c(-c2nc(C)cc3cc4c(c(O)c23)C(=O)c2c(cc(OC)c(Cl)c2OC)C4(C)C)c(OC)c1 | > 10 | > 10 | 4.4 | 3.4 | > 10 | 9.5 | 14.5 | 6.1 | – | 8.7 | 3.3 | 8.7 | 12.6 | 10 µM
23 | COc1cccc2c1C(=O)c1c(O)c3c(c(O)c1C2=O)C[C@@](O)(C(=O)CO)C[C@@H]3O[C@H]1C[C@H](N)[C@H](O)[C@H](C)O1 [DOXORUBICIN HYDROCHLORIDE] | – | – | 1.02 | 0.31 | – | 0.8 | 0.69 | – | – | – | – | – | – | –
24 | COc1cc(C)c(-c2cc(O)cc3cc4c(c(O)c23)C(=O)c2c(cc(OC)c(Cl)c2O)C4(C)C)c(O)c1 | – | – | 3 | 2.9 | – | 3.2 | 3.4 | 3.3 | – | – | – | – | – | –
25 | COc1cc2c(c(O)c1Cl)C(=O)c1c(cc3c(Cl)c(OC)cc(-c4c(O)cc(O)c(Cl)c4C)c3c1O)C2(C)C | 2.5 (≈ 4.24 µM) | 2.5 (≈ 4.24 µM) | 10.1 | 6.3 | 1.25 (≈ 2.12 µM) | 6.2 | 5.2 | 7.9 | 5 (≈ 8.48 µM) | – | – | – | – | –
26 | COc1cc2c(c(O)c1Cl)C(=O)c1c(cc3cc(O)cc(-c4c(C)c(OC)c(OC)c(Cl)c4O)c3c1O)C2(C)C | 1.25 (≈ 2.14 µM) | 1.25 (≈ 2.14 µM) | 17.8 | 7.2 | 2.5 (≈ 4.27 µM) | 9.9 | 9.1 | 14.5 | 5 (≈ 8.54 µM) | – | – | – | – | –
27 | COc1cc(C)c(C(=O)c2c(CC(C)=O)cc3c(c2O)C(=O)c2c(OC)cc(OC)cc2C3(C)C)c(OC)c1 | > 10 | > 10 | 29.3 | > 50 | > 10 | > 50 | 13.1 | > 50 | – | – | – | – | – | –
28 | COc1cc(C)c(-c2cc(O)cc3cc4c(c(O)c23)C(=O)c2c(cc(O)c(Cl)c2O)C4(C)C)c(O)c1 | 5 (≈ 9.86 µM) | 5 (≈ 9.86 µM) | 40.3 | 15.2 | 2.5 (≈ 4.93 µM) | 11.9 | 13.3 | 33 | 10 (≈ 19.7 µM) | – | – | – | – | –
29 | COc1cc(C)c(-c2cc(OC)cc3cc4c(c(O)c23)C(=O)c2c(O)cc(O)cc2C4(C)C)c(O)c1 | 1.25 (≈ 2.57 µM) | 1.25 (≈ 2.57 µM) | 7.1 | 4.7 | 1.25 (≈ 2.57 µM) | 4.4 | 3.3 | 6.4 | 1.25 (≈ 2.57 µM) | – | – | – | – | –
30 | COc1c(Cl)c(C)c(-c2cc(O)cc3cc4c(c(O)c23)C(=O)c2c(cc(O)c(Cl)c2O)C4(C)C)c(O)c1Cl | 1.25 (≈ 2.17 µM) | 1.25 (≈ 2.17 µM) | 14.4 | 6 | 1.25 (≈ 2.17 µM) | 7.7 | 5 | 12.4 | 1.25 (≈ 2.17 µM) | – | – | – | – | –
